Measured values reported in ChEMBL document CHEMBL1201862, “PubChem BioAssay data set” (2004).
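Following 48 hours of exposure in 96-well plates, responses at five concentrations were used to interpolate endpoints linearly. Abbreviation: GI50, concentration required for 50% inhibition of growth.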 Active and inactive are the calls of the source. Rule as the data show it: active = GI50 up to about 1.1 µM and inactive = higher.

What was measured:
Assay in all cases: NCI anticancer screen, dose series, 48 h
A498 = tested on: A498
CAKI-1 = tested on: CAKI-1
COLO 205 = tested on: COLO 205
HCT-116 = tested on: HCT-116
HL-60 = tested on: HL-60
HOP-62 = tested on: HOP-62
LOX IMVI = tested on: LOX IMVI
LXFL 529 = tested on: LXFL 529
NCI-H460 = tested on: NCI-H460
NCI-H522 = tested on: NCI-H522
OVCAR-3 = tested on: OVCAR-3
OVCAR-4 = tested on: OVCAR-4
SK-MEL-5 = tested on: SK-MEL-5
SK-OV-3 = tested on: SK-OV-3
SNB-19 = tested on: SNB-19
TK-10 = tested on: TK-10
UACC-257 = tested on: UACC-257
UO-31 = tested on: UO-31
RPMI-8226 = tested on: RPMI-8226
T47D = tested on: T47D

Measured: GI50

CC1NOC(=O)C1/N=N/c1ccc(Cl)cc1Cl (stereo not drawn)
inactive: A498 35.3 µM | CAKI-1 24.4 µM | COLO 205 20 µM | HCT-116 21.9 µM | HL-60 16 µM | HOP-62 43 µM | LOX IMVI 27.2 µM | LXFL 529 21.9 µM | NCI-H460 24.7 µM | NCI-H522 17.8 µM | OVCAR-3 16.4 µM | OVCAR-4 21.6 µM | SK-MEL-5 25.8 µM | SK-OV-3 29.3 µM | SNB-19 22.6 µM | TK-10 23.8 µM | UACC-257 24.5 µM | UO-31 24.4 µM

CCN(CC)CC(C(=O)Nc1c(C)cccc1C)/C(C)=N\NC(=O)C[N+](C)(C)C (stereo not drawn)
inactive: CAKI-1 > 100 µM | COLO 205 > 100 µM | HCT-116 > 100 µM | HL-60 > 100 µM | HOP-62 > 100 µM | LOX IMVI > 100 µM | LXFL 529 > 100 µM | NCI-H460 > 100 µM | NCI-H522 > 100 µM | OVCAR-3 > 100 µM | OVCAR-4 > 100 µM | RPMI-8226 > 100 µM | SK-MEL-5 > 100 µM | SK-OV-3 > 100 µM | SNB-19 > 100 µM | TK-10 > 100 µM | UACC-257 > 100 µM | UO-31 > 100 µM

O=C(CO[N+](=O)[O-])OCC(=O)c1ccccc1
inactive: CAKI-1 > 100 µM | COLO 205 > 100 µM | HCT-116 > 100 µM | HL-60 > 100 µM | HOP-62 > 100 µM | LOX IMVI > 100 µM | LXFL 529 > 100 µM | NCI-H460 > 100 µM | NCI-H522 > 100 µM | OVCAR-3 > 100 µM | OVCAR-4 > 100 µM | RPMI-8226 > 100 µM | SK-OV-3 > 100 µM | SNB-19 > 100 µM | TK-10 > 100 µM | UACC-257 > 100 µM | UO-31 > 100 µM

CCOC(=O)C1S/C(=N\c2ccc(Cl)cc2)N=C1C (stereo not drawn)
inactive: A498 18.3 µM | COLO 205 17.5 µM | HCT-116 16.6 µM | HL-60 23 µM | HOP-62 20.2 µM | LOX IMVI 18.6 µM | LXFL 529 > 10 µM | NCI-H460 23.6 µM | NCI-H522 17.3 µM | OVCAR-3 23.6 µM | OVCAR-4 24.7 µM | RPMI-8226 27.9 µM | SNB-19 19.2 µM | TK-10 28.4 µM | UACC-257 > 10 µM | UO-31 19 µM

COc1ccc2c(CCNS(=O)(=O)c3ccccc3)c(C(C)=O)[nH]c2c1[N+](=O)[O-]
inactive: A498 > 100 µM | CAKI-1 > 10 µM | COLO 205 > 100 µM | HCT-116 > 100 µM | HL-60 > 100 µM | HOP-62 86.7 µM | LOX IMVI > 100 µM | LXFL 529 > 100 µM | NCI-H460 > 100 µM | NCI-H522 > 100 µM | OVCAR-3 > 100 µM | OVCAR-4 28.4 µM | RPMI-8226 > 100 µM | SNB-19 > 100 µM | UACC-257 > 100 µM | UO-31 > 100 µM

Cn1c(=O)c2[nH]cnc2n(CC(N)=O)c1=O
inactive: A498 > 100 µM | CAKI-1 > 100 µM | COLO 205 > 100 µM | HCT-116 > 100 µM | HOP-62 > 100 µM | LXFL 529 > 100 µM | NCI-H460 > 100 µM | NCI-H522 > 100 µM | OVCAR-3 > 100 µM | RPMI-8226 > 100 µM | SK-MEL-5 > 100 µM | SK-OV-3 > 100 µM | SNB-19 > 100 µM | TK-10 > 100 µM | UO-31 > 100 µM

CN1CCN(CCNc2ccc(CO)c3sc4ccccc4c(=O)c23)CC1
inactive: CAKI-1 11.9 µM | COLO 205 8.77 µM | HCT-116 5.69 µM | HL-60 8.93 µM | HOP-62 5.06 µM | LXFL 529 9.71 µM | NCI-H460 4.34 µM | NCI-H522 3.38 µM | OVCAR-3 8.18 µM | OVCAR-4 10.5 µM | RPMI-8226 10.9 µM | SK-MEL-5 12.7 µM | SNB-19 21 µM | TK-10 18.3 µM | UACC-257 15.2 µM | UO-31 14.7 µM

Nn1c(S)nnc1NNC(=O)C(=O)Nc1cc(Cl)c(Cl)cc1Cl
inactive: A498 > 100 µM | CAKI-1 > 100 µM | COLO 205 > 100 µM | HCT-116 > 100 µM | HOP-62 > 100 µM | LOX IMVI > 100 µM | LXFL 529 > 100 µM | NCI-H460 > 100 µM | NCI-H522 > 100 µM | OVCAR-3 > 100 µM | OVCAR-4 > 100 µM | SK-MEL-5 > 100 µM | SK-OV-3 > 100 µM | SNB-19 > 100 µM | TK-10 > 100 µM | UACC-257 > 100 µM | UO-31 > 100 µM

[N-]=[N+]=CC(=O)C1(C(=O)C=[N+]=[N-])CC1
inactive: A498 > 100 µM | COLO 205 > 100 µM | HCT-116 > 100 µM | HL-60 > 100 µM | HOP-62 > 100 µM | LOX IMVI > 100 µM | LXFL 529 > 100 µM | NCI-H460 > 100 µM | NCI-H522 > 100 µM | OVCAR-3 > 100 µM | OVCAR-4 > 100 µM | SK-MEL-5 > 100 µM | SK-OV-3 > 100 µM | SNB-19 > 100 µM | TK-10 > 100 µM | UACC-257 > 100 µM | UO-31 > 100 µM

O=C(Cc1ccccc1)N/N=C(/c1nc2ccc([N+](=O)[O-])cc2nc1O)C(O)c1ccco1 (stereo not drawn)
inactive: A498 > 100 µM | CAKI-1 60.8 µM | COLO 205 > 100 µM | HCT-116 > 100 µM | HL-60 31.8 µM | HOP-62 > 100 µM | LOX IMVI > 100 µM | LXFL 529 87.9 µM | NCI-H460 > 100 µM | NCI-H522 12.6 µM | OVCAR-4 > 100 µM | RPMI-8226 > 100 µM | SK-MEL-5 66.4 µM | SK-OV-3 > 100 µM | TK-10 > 100 µM | UACC-257 > 100 µM | UO-31 > 100 µM

O=C(NO)c1ccc(OCc2cccc(Cl)c2)cc1
inactive: A498 4.81 µM | CAKI-1 6.65 µM | COLO 205 7.35 µM | HCT-116 2.22 µM | HL-60 2.47 µM | HOP-62 9.1 µM | LOX IMVI 5.07 µM | NCI-H460 4.58 µM | NCI-H522 3.27 µM | OVCAR-3 4.55 µM | OVCAR-4 8.95 µM | RPMI-8226 3.27 µM | SK-MEL-5 12.4 µM | SK-OV-3 8.45 µM | SNB-19 24.5 µM | T47D 6.97 µM | TK-10 11.6 µM | UACC-257 13.6 µM | UO-31 7.43 µM

COc1ccc(CNC(C)C(=O)O)cc1 (stereo not drawn)
inactive: A498 > 100 µM | CAKI-1 > 100 µM | COLO 205 > 100 µM | HCT-116 > 100 µM | HL-60 > 100 µM | HOP-62 > 100 µM | LOX IMVI > 100 µM | NCI-H460 > 100 µM | NCI-H522 > 100 µM | OVCAR-3 > 100 µM | OVCAR-4 > 100 µM | RPMI-8226 > 100 µM | SK-MEL-5 > 100 µM | SK-OV-3 > 100 µM | SNB-19 > 100 µM | T47D > 100 µM | TK-10 > 100 µM | UACC-257 > 100 µM | UO-31 > 100 µM

O=C(Nc1ccc(Cl)c(Cl)c1)C(=O)Nn1c(S)nc2ccccc2c1=O
inactive: A498 > 100 µM | CAKI-1 > 100 µM | COLO 205 > 100 µM | HCT-116 > 100 µM | HL-60 > 100 µM | HOP-62 > 100 µM | LOX IMVI > 100 µM | LXFL 529 > 100 µM | NCI-H460 > 100 µM | NCI-H522 > 100 µM | OVCAR-4 > 100 µM | RPMI-8226 > 100 µM | SK-MEL-5 > 100 µM | SK-OV-3 > 100 µM | SNB-19 > 100 µM | TK-10 > 100 µM | UACC-257 > 100 µM | UO-31 > 100 µM

Cn1c(N)nc2c(nc(OCc3ccccc3)n2C2OC(CO)C(O)C2O)c1=O (stereo not drawn)
inactive: A498 > 100 µM | CAKI-1 > 100 µM | COLO 205 > 100 µM | HCT-116 > 100 µM | HL-60 > 100 µM | HOP-62 > 100 µM | LOX IMVI > 100 µM | NCI-H460 > 100 µM | NCI-H522 > 100 µM | OVCAR-3 > 100 µM | OVCAR-4 > 100 µM | RPMI-8226 > 100 µM | SK-MEL-5 > 100 µM | SK-OV-3 > 100 µM | SNB-19 > 100 µM | T47D > 100 µM | TK-10 > 100 µM | UACC-257 > 100 µM | UO-31 > 100 µM

N/N=C(\CC1OC(=O)c2ccccc21)c1ccco1 (stereo not drawn)
inactive: A498 > 100 µM | CAKI-1 > 100 µM | COLO 205 > 100 µM | HCT-116 > 100 µM | HL-60 > 100 µM | LOX IMVI 80 µM | LXFL 529 > 100 µM | NCI-H460 > 100 µM | NCI-H522 > 100 µM | OVCAR-3 > 100 µM | OVCAR-4 > 100 µM | SK-MEL-5 > 100 µM | SK-OV-3 > 100 µM | SNB-19 > 100 µM | TK-10 > 100 µM | UACC-257 > 100 µM | UO-31 > 100 µM

O=C(O)CCc1ccc(-c2ccccc2)[nH]1
inactive: A498 > 100 µM | CAKI-1 > 100 µM | COLO 205 > 100 µM | HCT-116 > 100 µM | HL-60 > 100 µM | HOP-62 > 100 µM | LOX IMVI > 100 µM | NCI-H460 > 100 µM | NCI-H522 > 100 µM | OVCAR-3 > 100 µM | OVCAR-4 > 100 µM | RPMI-8226 > 100 µM | SK-MEL-5 > 100 µM | SK-OV-3 > 100 µM | SNB-19 > 100 µM | T47D > 100 µM | TK-10 > 100 µM | UACC-257 > 100 µM | UO-31 > 100 µM
